Laboratory results: ChEMBL document CHEMBL3046456, “Anti-angiogenic/proliferative behavior of a 4-aryl-4H-chromene on blood vessels endothelial cells: A possible evidence on dual anti-tumor activity” (Med Chem Res, 2011)
The source made the active and inactive calls. No cut-off for these calls is given here.

How the values were obtained:
HUVEC [1] = assay: Antiproliferative activity against Homo sapiens (human) HUVEC cells at 3.11 to 124 uM after 3 days by cell counting analysis; format: functional, cell-based
HUVEC [2] = assay: Cytotoxicity against Homo sapiens (human) HUVEC cells after 48 hr by LDH assay; format: cell-based
HUVEC [3] = assay: Cytotoxicity against Homo sapiens (human) HUVEC cells after 48 hr by trypan blue assay; format: cell-based
HUVEC [4] = assay: Antiangiogenic activity against Homo sapiens (human) HUVEC cells assessed as inhibition of capillary tube formation after 3 days by microscopic analysis; format: functional, cell-based
HUVEC [5] = assay: Antiproliferative activity against Homo sapiens (human) HUVEC cells at 1 ug/ml after 3 days by cell counting analysis; format: functional, cell-based
HUVEC [6] = assay: Antiproliferative activity against Homo sapiens (human) HUVEC cells at <10 ug/ml after 3 days by cell counting analysis; format: functional, cell-based
HUVEC [7] = assay: Antiproliferative activity against Homo sapiens (human) HUVEC cells after 3 days by cell counting analysis; format: functional, cell-based
HUVEC [8] = assay: Cytotoxicity against Homo sapiens (human) HUVEC cells up to 40 ug/ml after 48 hr by LDH assay; format: cell-based
HUVEC [9] = assay: Cytotoxicity against Homo sapiens (human) HUVEC cells up to 40 ug/ml after 48 hr by trypan blue assay; format: cell-based
[10] = target: 72 kDa type IV collagenase (Homo sapiens) (UniProt P08253); assay: Inhibition of MMP2 (unknown origin) at 37.32 uM after 16 hr by gelatin zymographic analysis
[11] = target: Matrix metalloproteinase-9 (Homo sapiens) (UniProt P14780); assay: Inhibition of MMP9 (unknown origin) at 24.88 uM after 16 hr by gelatin zymographic analysis
[12] = target: Matrix metalloproteinase-9 (Homo sapiens) (UniProt P14780); assay: Inhibition of MMP9 (unknown origin) after 16 hr by gelatin zymographic analysis
HUVEC [13] = assay: Antiangiogenic activity against Homo sapiens (human) HUVEC cells assessed as inhibition of capillary tube formation at 1 ug/ml after 3 days by microscopic analysis; format: functional, cell-based

Matrix metalloproteinase-9 (Homo sapiens), sequence (P14780 whole entry): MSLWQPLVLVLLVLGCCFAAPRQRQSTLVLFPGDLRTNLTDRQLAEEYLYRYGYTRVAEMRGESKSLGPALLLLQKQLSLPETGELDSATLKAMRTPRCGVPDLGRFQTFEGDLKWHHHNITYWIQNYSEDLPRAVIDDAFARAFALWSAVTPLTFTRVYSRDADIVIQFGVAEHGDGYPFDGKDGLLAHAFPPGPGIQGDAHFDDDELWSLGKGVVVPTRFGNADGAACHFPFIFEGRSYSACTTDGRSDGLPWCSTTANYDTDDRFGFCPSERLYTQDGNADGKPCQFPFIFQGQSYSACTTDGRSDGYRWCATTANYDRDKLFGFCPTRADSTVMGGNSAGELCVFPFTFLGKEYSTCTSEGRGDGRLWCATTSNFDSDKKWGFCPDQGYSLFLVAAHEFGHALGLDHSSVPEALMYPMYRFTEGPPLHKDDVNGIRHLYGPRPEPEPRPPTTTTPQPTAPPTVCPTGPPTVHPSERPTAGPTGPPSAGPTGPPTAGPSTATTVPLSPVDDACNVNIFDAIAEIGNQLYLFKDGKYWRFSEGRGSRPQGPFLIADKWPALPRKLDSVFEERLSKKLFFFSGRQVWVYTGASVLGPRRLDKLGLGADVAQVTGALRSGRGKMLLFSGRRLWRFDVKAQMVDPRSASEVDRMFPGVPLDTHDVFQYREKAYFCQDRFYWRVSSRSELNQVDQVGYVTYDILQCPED
72 kDa type IV collagenase (Homo sapiens), sequence (P08253 110-660 limits assumed): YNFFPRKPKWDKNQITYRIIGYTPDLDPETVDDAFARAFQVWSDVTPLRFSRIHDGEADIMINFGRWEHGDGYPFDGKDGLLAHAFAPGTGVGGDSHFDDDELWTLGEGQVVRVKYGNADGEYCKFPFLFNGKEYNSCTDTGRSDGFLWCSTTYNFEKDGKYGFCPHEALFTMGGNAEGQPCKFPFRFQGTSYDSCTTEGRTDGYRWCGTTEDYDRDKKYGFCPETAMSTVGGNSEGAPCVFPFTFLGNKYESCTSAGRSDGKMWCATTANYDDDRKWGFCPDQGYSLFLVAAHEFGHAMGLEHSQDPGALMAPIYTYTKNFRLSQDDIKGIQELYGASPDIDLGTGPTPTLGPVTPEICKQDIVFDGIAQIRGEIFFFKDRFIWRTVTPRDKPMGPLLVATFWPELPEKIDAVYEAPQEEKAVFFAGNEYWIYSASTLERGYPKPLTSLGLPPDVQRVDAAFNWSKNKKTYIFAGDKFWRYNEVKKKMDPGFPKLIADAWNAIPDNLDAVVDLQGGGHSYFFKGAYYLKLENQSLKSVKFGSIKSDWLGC

In the case of `COc1ccc2c(c1)OC/C(=C\c1ccc(OC)c(OC)c1)C2=O`, the Activity (HUVEC [1]) was “inactive”, the Activity (HUVEC [2]) was “Dose-dependent effect” and the Activity (HUVEC [3]) was “Dose-dependent effect”.

In the case of `COc1ccc2c(c1)OC/C(=C\c1ccc(Cl)cc1Cl)C2=O`, the Activity (HUVEC [1]) was “inactive”, the Activity (HUVEC [2]) was “Dose-dependent effect” and the Activity (HUVEC [3]) was “Dose-dependent effect”.

With `COc1ccc2c(c1)OC/C(=C\c1cc(OC)c(O)c(OC)c1)C2=O` the Activity (HUVEC [1]) was “inactive”, the Activity (HUVEC [2]) was “Dose-dependent effect” and the Activity (HUVEC [3]) was “Dose-dependent effect”.

With `COc1ccc2c(c1)OC/C(=C\c1ccc(F)cc1)C2=O` the Activity (HUVEC [1]) was “inactive”, the Activity (HUVEC [2]) was “Dose-dependent effect” and the Activity (HUVEC [3]) was “Dose-dependent effect”.

With `COc1ccc2c(c1)OC/C(=C\c1ccc(O)cc1)C2=O` the Activity (HUVEC [1]) was “inactive”, the Activity (HUVEC [2]) was “Dose-dependent effect” and the Activity (HUVEC [3]) was “Dose-dependent effect”.

In the case of `CCCOc1ccc2c(c1)OC/C(=C\c1ccc(O)c(O)c1)C2=O`, the Activity (HUVEC [1]) was “inactive”, the Activity (HUVEC [2]) was “Dose-dependent effect” and the Activity (HUVEC [3]) was “Dose-dependent effect”.

`COc1ccc2c(c1)OC/C(=C\c1ccccc1OC)C2=O` was tested, and the Activity (HUVEC [1]) was “inactive”, the Activity (HUVEC [2]) was “Dose-dependent effect” and the Activity (HUVEC [3]) was “Dose-dependent effect”.

`COc1ccccc1C1C(C#N)=C(N)Oc2cc(N(C)C)ccc21` (centres undefined) was tested, and the inhibition (HUVEC [4]) was “Dose-dependent effect”, the Activity (HUVEC [5]) was “Active” and the Activity (HUVEC [6]) was “Active”. The Activity (HUVEC [7]) was “Dose-dependent effect”, the Activity (HUVEC [8]) was “Non-toxic” and the Activity (HUVEC [9]) was “Non-toxic”. The inhibition [10] was “Active”, the inhibition [11] was “Active” and the inhibition [12] was “Dose-dependent effect”. For the same compound, the inhibition (HUVEC [13]) was “Active”.

With `COc1ccc2c(c1)OC/C(=C\c1ccc(Cl)cc1)C2=O` the Activity (HUVEC [1]) was “inactive”, the Activity (HUVEC [2]) was “Dose-dependent effect” and the Activity (HUVEC [3]) was “Dose-dependent effect”.

In the case of `CN(C)c1ccc2c(c1)OC(N)=C(C#N)C2c1cccc(C(F)(F)F)c1` (centres undefined), the Activity (HUVEC [1]) was “inactive”, the Activity (HUVEC [2]) was “Dose-dependent effect” and the Activity (HUVEC [3]) was “Dose-dependent effect”.

In the case of `COc1ccc(/C=C2\COc3cc(OC)ccc3C2=O)cc1`, the Activity (HUVEC [1]) was “inactive”, the Activity (HUVEC [2]) was “Dose-dependent effect” and the Activity (HUVEC [3]) was “Dose-dependent effect”.

`COc1ccc2c(c1)OC/C(=C\c1ccc(C(F)(F)F)cc1)C2=O` was tested, and the Activity (HUVEC [1]) was “inactive”, the Activity (HUVEC [2]) was “Dose-dependent effect” and the Activity (HUVEC [3]) was “Dose-dependent effect”.

With `CN(C)c1ccc2c(c1)OC(N)=C(C#N)C2c1cccc([N+](=O)[O-])c1` (centres undefined) the Activity (HUVEC [1]) was “inactive”, the Activity (HUVEC [2]) was “Dose-dependent effect” and the Activity (HUVEC [3]) was “Dose-dependent effect”.

`COc1ccc2c(c1)OC/C(=C\c1ccc(O)c(O)c1)C2=O` was tested, and the Activity (HUVEC [1]) was “inactive”, the Activity (HUVEC [2]) was “Dose-dependent effect” and the Activity (HUVEC [3]) was “Dose-dependent effect”.
